target: α-glucosidase; assay: pNPG hydrolysis assay, absorbance at […] nm; type: biochemical

Row | IC50 [µM] | Compound
1 | 516 | C=C(C)[C@@H]1CC=C(C)[C@H](O[C@@H]2O[C@H](CO)[C@@H](O)[C@H](O)[C@H]2O)C1 [compound 3, (4R,6R)-carveol β-D-glucoside]
2 | 919 | C=C(C)[C@@H]1CC=C(C)[C@@H](O[C@@H]2O[C@H](CO)[C@@H](O)[C@H](O)[C@H]2O)C1 [compound 4, (4R,6S)-carveol β-D-glucoside]
3 | 83.4 | CC1=C(CC[C@H](C)O)C(C)(C)C[C@H](O[C@@H]2O[C@H](CO)[C@@H](O)[C@H](O)[C@H]2O)C1 [compound 11, (3R,9S)-megastigman-5-en-3,9-diol 3-O-β-D-glucopyranoside]

Reference: publication PMC6538733, “Chemical Constituents from Mentha haplocalyx Briq. (Mentha canadensis L.) and Their α-Glucosidase Inhibitory Activities” (Natural Products and Bioprospecting, 2019)
